Measurements published in patent publication US9125913B2, “Bcl-2-selective apoptosis-inducing agents for the treatment of cancer and immune diseases” (AbbVie Inc., priority 2008, dated 2015).
Where two headings read alike, the source gives them in different places.

Legend:
GST-Bcl-XL = GST-Bcl-XL (Homo sapiens (Human), UniProt Q07817); assay: TR-FRET binding assay, Bcl-XL; conditions: GST-Bcl-XL 1 nM, F-Bak probe 100 nM, Tb-anti-GST 1 nM
Protocol: Tb-anti-GST antibody was purchased from Invitrogen (Catalog No. PV4216).
Representative compounds were serially diluted in dimethyl sulfoxide (DMSO) starting at 50 μM (2× starting concentration; 10% DMSO) and 10 μL were transferred into a 384-well plate.
The samples were then mixed on a shaker for 1 minute and incubated for an additional 3 hours at room temperature. For each assay, the probe/antibody and protein/probe/antibody were included on each assay plate as negative and positive controls, respectively. Fluorescence was measured on the Envision (Perkin Elmer) using a 340/35 nm excitation filter and 520/525 (F-Bak peptide) and 495/510 nm (Tb-labeled anti-Histidine antibody) emission filters.
The inhibition constant (Ki) is the dissociation constant of an enzyme-inhibitor complex or a protein/small molecule complex, wherein the small molecule is inhibiting binding of one protein to another protein or peptide. […] Inhibition constants were determined using Wang's equation (Wang Z-X., An Exact Mathematical Expression For Describing Competitive Binding Of Two Different Ligands To A Protein Molecule. FEBS Lett. 1995, 360:111-4).

GST-Bcl-2 [1] = molecular target: GST-Bcl-2 (Homo sapiens (Human), UniProt P10415); assay: TR-FRET binding assay, Bcl-2; conditions: TR-FRET; GST-Bcl-2 1 nM, F-Bak probe 100 nM, Tb-anti-GST 1 nM
Outline: (§1)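 Compounds serially diluted in DMSO from 50 μM (2× starting concentration, 10% DMSO), mixed with GST-tagged protein, F-Bak peptide probe and Tb-labeled antibody, incubated 3 h at room temperature.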

GST-Bcl-2 [2] = assay: TR-FRET binding assay, Bcl-2; conditions: TR-FRET Ki values
Outline: as §1

FL5.12/Bcl-2 cells = assay: FL5.12/Bcl-2 cell viability assay; type: cell-based, murine; conditions: for Selectivity Ratio (Platelet EC50/FL5.12/Bcl-2 EC50): ratio of canine platelet EC50 to FL5.12/Bcl-2 EC50
Outline: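 Cells (1×10^6/ml) are washed, resuspended in medium lacking WEHI-3B conditioned medium as IL-3 source, and held 48 hrs. Compounds are then added at a range of concentrations for 24 hrs, after which CellTitre Glo reports viability.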

circulating platelets [3] = conditions: following injection into C57BL/6 mice; cited from earlier work
circulating platelets [4] = conditions: following injection in beagle canines; cited from earlier work
[5] = test system: isolated canine platelets; assay: Platelet cell viability assay; type: cell-based; conditions: Canis lupus familiaris, 5 h; isolated canine platelets (platelet-rich plasma), five hours at 37° C., Cell Titer Glo
Protocol: After the incubation, platelets were equilibrated to room temperature for 20 minutes and then an equal volume of Cell Titer Glo reagent (Promega Corporation) was added. Samples were mixed for two minutes and then allowed to equilibrate for an additional 10 minutes at room temperature. The luminescence generated from the samples was quantitated using an LJL Analyst plate reader.
The effect of compounds on platelet survival can be directly evaluated ex vivo by examining the viability of isolated canine platelets in the presence of various concentrations of compound.

Chain of GST-Bcl-2 (Homo sapiens (Human), UniProt P10415) (P10415 whole entry, looked up): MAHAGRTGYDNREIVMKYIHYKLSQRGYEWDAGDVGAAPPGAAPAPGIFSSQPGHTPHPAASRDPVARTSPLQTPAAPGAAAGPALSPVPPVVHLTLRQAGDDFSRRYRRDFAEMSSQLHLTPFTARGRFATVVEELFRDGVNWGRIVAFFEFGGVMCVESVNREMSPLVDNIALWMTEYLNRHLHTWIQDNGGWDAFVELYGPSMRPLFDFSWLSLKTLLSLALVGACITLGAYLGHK
Chain of GST-Bcl-XL (Q07817 whole entry): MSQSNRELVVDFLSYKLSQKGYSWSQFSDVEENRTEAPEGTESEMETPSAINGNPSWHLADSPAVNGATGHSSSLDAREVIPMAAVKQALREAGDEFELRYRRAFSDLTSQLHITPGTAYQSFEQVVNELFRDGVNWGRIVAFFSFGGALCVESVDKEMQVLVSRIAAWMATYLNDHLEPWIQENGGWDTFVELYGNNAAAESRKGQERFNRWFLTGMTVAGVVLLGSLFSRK

Structure (SMILES) | Binding selectivity ratio (Bcl-XL Ki/Bcl-2 Ki) (GST-Bcl-2 [2]) | Selectivity Ratio (Platelet EC50/FL5.12/Bcl-2 EC50) (FL5.12/Bcl-2 cells) | other results
CN1CCC(Nc2ccc(S(=O)(=O)NC(=O)c3ccc(N4CCN(CC5=C(c6ccc(Cl)cc6)CC(C)(C)CC5)CC4)cc3Oc3ccc4[nH]ccc4c3)cc2S(=O)(=O)C(F)(F)F)CC1 [Example 76, 4-(4-{[2-(4-chlorophenyl)-4,4-dimethylcyclohex-1-en-1-yl]methyl}piperazin-1-yl)-2-(1H-indol-5-yloxy)-N-({4-[(1-methylpiperidin-4-yl)amino]-3-[(trifluoromethyl)sulfonyl]phenyl}sulfonyl)benzamide] | 64.5 | 221 | Ki (GST-Bcl-XL): 10 µM; Ki (GST-Bcl-2 [1]): 0.05 nM
CN(C)CC[C@H](CSc1ccccc1)Nc1ccc(S(=O)(=O)NC(=O)c2ccc(N3CCN(Cc4ccccc4-c4ccc(Cl)cc4)CC3)cc2)cc1[N+](=O)[O-] [ABT-737, 4-(4-((4′-chloro-1,1′-biphenyl-2-yl)methyl)piperazin-1-yl)-N-((4-(((1R)-3-(dimethylamino)-1-((phenylthio)methyl)propyl)amino)-3-nitrophenyl)sulfonyl)benzamide] |  |  | decrease in circulating platelets (circulating platelets [3]): rapid, concentration dependant decrease in circulating platelets; decrease in circulating platelets (circulating platelets [4]): rapid, concentration dependant decrease in circulating platelets
CN1CCC(Nc2ccc(S(=O)(=O)NC(=O)c3ccc(N4CCN(CC5=C(c6ccc(Cl)cc6)CC(C)(C)OC5)CC4)cc3Oc3cccc4[nH]ccc34)cc2[N+](=O)[O-])CC1 [Example 145, 4-(4-{[4-(4-chlorophenyl)-6,6-dimethyl-5,6-dihydro-2H-pyran-3-yl]methyl}piperazin-1-yl)-2-(1H-indol-4-yloxy)-N-({4-[(1-methylpiperidin-4-yl)amino]-3-nitrophenyl}sulfonyl)benzamide] | 401 | 730 | 
CN(C)CCOc1ccc(-c2ccc(Cl)cc2)c(CN2CCN(c3ccc(C(=O)NS(=O)(=O)c4ccc(NCC5CCOCC5)c([N+](=O)[O-])c4)c(Oc4ccc5[nH]ccc5c4)c3)CC2)c1 [Example 126, 4-[4-({4′-chloro-4-[2-(dimethylamino)ethoxy]-1,1′-biphenyl-2-yl}methyl)piperazin-1-yl]-2-(1H-indol-5-yloxy)-N-({3-nitro-4-[(tetrahydro-2H-pyran-4-ylmethyl)amino]phenyl}sulfonyl)benzamide] | 13575 | >1618 | 
CN1CCC(Nc2ccc(S(=O)(=O)NC(=O)c3ccc(N4CCN(CC5=C(c6ccc(Cl)cc6)CCCC5)CC4)cc3Oc3cccc4[nH]ccc34)cc2[N+](=O)[O-])CC1 [Example 149, 4-(4-{[2-(4-chlorophenyl)cyclohex-1-en-1-yl]methyl}piperazin-1-yl)-2-(1H-indol-4-yloxy)-N-({4-[(1-methylpiperidin-4-yl)amino]-3-nitrophenyl}sulfonyl)benzamide] | >2490.6 | 1298 | 
O=C(NS(=O)(=O)c1ccc(NCC2CCOCC2)c([N+](=O)[O-])c1)c1ccc(N2CCN(Cc3cc(OCCN4CCCC4)ccc3-c3ccc(Cl)cc3)CC2)cc1Oc1ccccc1 [Example 138, 4-(4-{[4′-chloro-4-(2-pyrrolidin-1-ylethoxy)-1,1′-biphenyl-2-yl]methyl}piperazin-1-yl)-N-({3-nitro-4-[(tetrahydro-2H-pyran-4-ylmethyl)amino]phenyl}sulfonyl)-2-phenoxybenzamide] | 574.9 | 616 | 
CN1CCC(Nc2ccc(S(=O)(=O)NC(=O)c3ccc(N4CCN(Cc5ccccc5-c5ccc(Cl)cc5)CC4)cc3Oc3ccccc3)cc2[N+](=O)[O-])CC1 [Example 89, 4-{4-[(4′-chloro-1,1′-biphenyl-2-yl)methyl]piperazin-1-yl}-N-({4-[(1-methylpiperidin-4-yl)amino]-3-nitrophenyl}sulfonyl)-2-phenoxybenzamide] | 57.8 | 495 | 
CN1CCC(CNc2ccc(S(=O)(=O)NC(=O)c3ccc(N4CCN(CC5=C(c6ccc(Cl)cc6)CC(C)(C)CC5)CC4)cc3Oc3ccc4[nH]ccc4c3)cc2[N+](=O)[O-])CC1 [Example 104, 4-(4-{[2-(4-chlorophenyl)-4,4-dimethylcyclohex-1-en-1-yl]methyl}piperazin-1-yl)-2-(1H-indol-5-yloxy)-N-[(4-{[(1-methylpiperidin-4-yl)methyl]amino}-3-nitrophenyl)sulfonyl]benzamide] | 637.7 | >2392 | 
O=C(NS(=O)(=O)c1ccc(NCC2CCOCC2)c([N+](=O)[O-])c1)c1ccc(N2CCN(Cc3ccccc3-c3ccc(Cl)cc3)CC2)cc1Oc1ccc2c(c1)CCN2 [Example 140, 4-{4-[(4′-chloro-1,1′-biphenyl-2-yl)methyl]piperazin-1-yl}-2-(2,3-dihydro-1H-indol-5-yloxy)-N-({3-nitro-4-[(tetrahydro-2H-pyran-4-ylmethyl)amino]phenyl}sulfonyl)benzamide] | >139.7 | >23 | 
CN(C)CCCNc1ccc(S(=O)(=O)NC(=O)c2ccc(N3CCN(Cc4ccccc4-c4ccc(Cl)cc4)CC3)cc2Oc2ccc3ccccc3c2)cc1[N+](=O)[O-] [Example 166, 4-{4-[(4′-chloro-1,1′-biphenyl-2-yl)methyl]piperazin-1-yl}-N-[(4-{[3-(dimethylamino)propyl]amino}-3-nitrophenyl)sulfonyl]-2-(2-naphthyloxy)benzamide] | 7.1 | >327 | 
O=C(NS(=O)(=O)c1ccc(NCCCN2CCCC2)c([N+](=O)[O-])c1)c1ccc(N2CCN(CC3=C(c4ccc(Cl)cc4)CCCCC3)CC2)cc1Oc1cccc2[nH]ccc12 [Example 141, 4-(4-{[2-(4-chlorophenyl)cyclohept-1-en-1-yl]methyl}piperazin-1-yl)-2-(1H-indol-4-yloxy)-N-({3-nitro-4-[(3-pyrrolidin-1-ylpropyl)amino]phenyl}sulfonyl)benzamide] | 42.6 | >661 | 
CN1CCC(Nc2ccc(S(=O)(=O)NC(=O)c3ccc(N4CCN(CC5=C(c6ccc(Cl)cc6)CCC5)CC4)cc3Oc3cccc4[nH]ccc34)cc2[N+](=O)[O-])CC1 [Example 148, 4-(4-{[2-(4-chlorophenyl)cyclopent-1-en-1-yl]methyl}piperazin-1-yl)-2-(1H-indol-4-yloxy)-N-({4-[(1-methylpiperidin-4-yl)amino]-3-nitrophenyl}sulfonyl)benzamide] | >228.4 | 278 | EC50 [5]: 120 µM; EC50 (FL5.12/Bcl-2 cells; Mus musculus, FL5.12/Bcl-2 cells, IL-3 withdrawal, 24 hrs treatment, CellTitre Glo): 0.07 µM
